Reference: PubChem BioAssay AID2060350 (Molecular Pharmacology Branch, DTP, NCI, 2025)

Tested on: PDC 521955-158-R6-J3 spheroids, viability
Experiment: Anticancer human tumor 521955-158-R6-J3-PDC patient-derived pancreatic carcinoma cell line growth inhibition [TAK]
Settings: spheroids with HUVEC and MSC; for IC50: curve of first compound; for viability, T/C: stronger effect = lower value; active means viability on the fitted dose curve at most 10% of control; inactive means the rest
Excerpt: Combinatorial screen of targeted agents with TAK-243 and ipatasertib in multi-cell type tumor spheroids
A high-throughput screen of multi-cell type tumor spheroids was designed to identify active combinations of targeted small molecules and TAK-243 or ipatasertib. Complex spheroids include a stromal component modeled by human endothelial cells (HUVEC) and fibroblasts modeled by human mesenchymal stem cells (MSCs). The concentration ranges selected for each drug and investigational agent were based upon clinically achievable concentrations if the clinical Cmax of the agent was known.
Compounds. The drugs and investigational agents: TAK-243 (785004), ipatasertib (767898), everolimus (733504), selumetinib (741078), bortezomib (756655), trametinib (758246), ixazomib (758254), vemurafenib (761431), dabrafenib (764134), sapanisertib (764658), alpelisib (765974), and copanlisib (816437), were obtained from the National Cancer Institute (NCI) Developmental Therapeutics Program Chemical Repository. The FDA-approved anticancer drug set is available from the NCI Developmental Therapeutics Program. […] The stock solutions were prepared in dimethyl sulfoxide (DMSO, Sigma-Aldrich, St. Louis, MO, cat. D2650) at 800-fold the tested concentration and stored at -70 degrees C prior to their use. All drugs and investigational agents were tested over a range starting from a high concentration at or near the clinical Cmax and decreasing in half-log increments. If the clinical Cmax for an agent had not been determined, the highest concentration tested was 10 microM.
NCI60 Cell Culture. NCI60 cell lines were obtained from the NCI Developmental Therapeutics Program Tumor Repository. For each lot of cells, the Repository performed Applied Biosystems AmpFLSTR Identifiler testing with PCR amplification to confirm consistency with the published Identifier STR profile for each cell line. Cells were kept in continuous culture for no more than 20 passages. The optimal seeding densities for each of the cell lines at each time point assessed were determined prior to performing the concentration response studies. Briefly, the NCI60 human tumor lines were grown as monolayers in RPMI 1640 medium supplemented with 10% FBS and 2 mmol/L L-glutamine.
An additional 2 lines were from the NCI60 cell line panel including melanomas, MALME-3M and SK-MEL-2. Pooled donor human umbilical vein endothelial cells (HUVEC, Lonza, cat. CC-2519) and human mesenchymal stem cells (hMSC, Lonza, cat. PT-2501) were purchased from Lonza (Walkersville, MD).
PDMR cell lines were grown in complete medium (DC medium): Dulbecco's modified Eagle's medium (DMEM)/F12 supplemented with 5% fetal bovine serum (FBS), 2 mM L-glutamine, 100 U/mL penicillin and 100 µg/ml streptomycin, 0.4 µg/ml hydrocortisone, 10 ng/ml epidermal growth factor (EGF) recombinant human protein, 24 µg/mL adenine, and 0.1 mg/mL primocin. During culture from frozen stock vials, PDMR cells were cultured in the same medium containing 10 µM Y-27632 (see Table 3). The PDCs were cultured in complete DMEM/F12 media without 10 microM Y-27632 dihydrochloride for at least two passages prior to the screen. The pooled donor HUVEC and hMSC were cultured in endothelial cell growth medium 2 (PromoCell, Heidelberg, Germany, cat. C-22011) and mesenchymal stem cell growth medium 2 (PromoCell, cat. C-28009), respectively. For all experiments, HUVEC and hMSC were used at passages </=5.
For the pre-screen, cell seeding densities were determined from a titration spanning the range from 5,000 to 313 cells per well. The mct-spheroids including 60% malignant cells, 25% HUVEC and 15% MSC dispensed as a mixture into U-bottom Ultra-Low Attachment 384-well plates (Corning, NY)
High-throughput Drug Combination Screening.
Prior to their inoculation into 384-well plates, malignant cells, HUVEC, and hMSC were removed from T flasks using TrypLE express (Thermo Fisher Scientific, cat. 12605036) and harvested by centrifugation for 5 min at 233 x g. […]
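Further: spheroids exposed to drugs for 7 days before readout.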

Cc1nc(NC(=O)N2CCCC2C(N)=O)sc1-c1ccnc(C(C)(C)C(F)(F)F)c1 (stereo not given) + CC(C)NCC(C(=O)N1CCN(c2ncnc3c2C(C)CC3O)CC1)c1ccc(Cl)cc1
inactive: viability, T/C (second compound 0.3 µM, first compound 0.0316 µM) 70.5% | viability, T/C (second compound 0.3 µM, first compound 0.1 µM) 77% | viability, T/C (second compound 0.3 µM, first compound 0.316 µM) 72.7% | viability, T/C (second compound 0.3 µM, first compound 1 µM) 63.1% | viability, T/C (second compound 0.3 µM, first compound 3.16 µM) 66.4% | viability, T/C (second compound 0.3 µM, first compound 10 µM) 55.6% | viability, T/C (second compound 0.949 µM, first compound 0.0316 µM) 63.4% | viability, T/C (second compound 0.949 µM, first compound 0.1 µM) 64% | viability, T/C (second compound 0.949 µM, first compound 0.316 µM) 57.3% | viability, T/C (second compound 0.949 µM, first compound 1 µM) 55.3% | viability, T/C (second compound 0.949 µM, first compound 3.16 µM) 54.3% | viability, T/C (second compound 0.949 µM, first compound 10 µM) 44.9% | viability, T/C (second compound 3 µM, first compound 0.0316 µM) 57.2% | viability, T/C (second compound 3 µM, first compound 0.1 µM) 62.7% | viability, T/C (second compound 3 µM, first compound 0.316 µM) 58.8% | viability, T/C (second compound 3 µM, first compound 1 µM) 51.5% | viability, T/C (second compound 3 µM, first compound 3.16 µM) 51.2% | viability, T/C (second compound 3 µM, first compound 10 µM) 38.9% | viability, T/C (second compound 9.49 µM, first compound 0.0316 µM) 63% | viability, T/C (second compound 9.49 µM, first compound 0.1 µM) 58.4% | viability, T/C (second compound 9.49 µM, first compound 0.316 µM) 48.2% | viability, T/C (second compound 9.49 µM, first compound 1 µM) 47.2% | viability, T/C (second compound 9.49 µM, first compound 3.16 µM) 46.9% | viability, T/C (second compound 9.49 µM, first compound 10 µM) 35.1% | viability, T/C (second compound 30 µM, first compound 0.0316 µM) 60% | viability, T/C (second compound 30 µM, first compound 0.1 µM) 49.2% | viability, T/C (second compound 30 µM, first compound 0.316 µM) 54.5% | viability, T/C (second compound 30 µM, first compound 1 µM) 46.8% | viability, T/C (second compound 30 µM, first compound 3.16 µM) 38.9% | viability, T/C (second compound 30 µM, first compound 10 µM) 26.2%
509 nM: IC50 (second compound 9.49 µM)
4490 nM: IC50 (second compound 0.949 µM)
481 nM: IC50 (second compound 30 µM)
> 10000 nM: IC50 (second compound 0.3 µM)
2820 nM: IC50 (second compound 3 µM)
